According to patent US9340478B2, “Cooling agent and TRPM8 activator” (Kao Corporation, priority 2011, dated 2016):

These compounds were tested against T1, human TRPM8 (Homo sapiens, UniProt Q7Z2W7) (assay: TRPM8 activating action, fluorescent calcium imaging in HEK293 cell line stably expressing human TRPM8). Details: HEK293 cells expressing human TRPM8; Fluo4 calcium imaging at 32° C.; 1 nM to 100 μM; Hill's equation fit.
T1 construct: A full-length human TRPM8 gene was amplified from human prostatic tissue total RNA; expressed in transfected cells; host or cells: HEK293
T1 sequence (Q7Z2W7 whole entry): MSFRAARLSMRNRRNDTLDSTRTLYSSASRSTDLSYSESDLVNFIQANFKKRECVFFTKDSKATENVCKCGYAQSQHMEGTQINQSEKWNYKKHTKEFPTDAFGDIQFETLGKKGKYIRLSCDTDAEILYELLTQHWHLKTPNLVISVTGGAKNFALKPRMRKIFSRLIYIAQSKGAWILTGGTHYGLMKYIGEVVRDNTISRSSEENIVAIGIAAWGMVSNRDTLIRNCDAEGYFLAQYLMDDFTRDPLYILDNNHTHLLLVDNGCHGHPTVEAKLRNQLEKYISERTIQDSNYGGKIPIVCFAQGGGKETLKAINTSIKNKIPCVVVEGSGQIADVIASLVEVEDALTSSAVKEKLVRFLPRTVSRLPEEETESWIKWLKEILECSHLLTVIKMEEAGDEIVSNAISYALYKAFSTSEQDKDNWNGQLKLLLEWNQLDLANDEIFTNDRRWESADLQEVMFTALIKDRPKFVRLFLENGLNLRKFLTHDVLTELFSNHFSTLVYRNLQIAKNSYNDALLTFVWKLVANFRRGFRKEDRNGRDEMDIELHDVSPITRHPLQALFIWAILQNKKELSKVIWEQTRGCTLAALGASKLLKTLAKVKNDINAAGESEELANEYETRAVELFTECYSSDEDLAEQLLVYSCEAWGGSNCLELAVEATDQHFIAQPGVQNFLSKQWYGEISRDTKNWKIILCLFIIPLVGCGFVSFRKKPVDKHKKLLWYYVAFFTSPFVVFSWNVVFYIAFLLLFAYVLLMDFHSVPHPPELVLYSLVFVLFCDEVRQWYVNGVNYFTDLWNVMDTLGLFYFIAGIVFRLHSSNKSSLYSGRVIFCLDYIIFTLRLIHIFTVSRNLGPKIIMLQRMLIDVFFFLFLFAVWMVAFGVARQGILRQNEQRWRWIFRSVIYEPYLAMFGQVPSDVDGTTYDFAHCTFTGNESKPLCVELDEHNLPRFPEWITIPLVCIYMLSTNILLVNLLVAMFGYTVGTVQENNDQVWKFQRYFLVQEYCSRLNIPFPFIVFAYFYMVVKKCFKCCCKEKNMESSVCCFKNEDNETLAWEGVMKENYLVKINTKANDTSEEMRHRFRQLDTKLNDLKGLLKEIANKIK
Format: cell-based
Method: The EC50 value in connection with the TRPM8 activating action of a test sample was measured according to the following procedure.
(1) Production of Cell Line Stably Expressing Human TRPM8
In order to produce a HEK293 cell line stably expressing human TRPM8, cloning of human TRPM8 gene was carried out. A full-length human TRPM8 gene was amplified from human prostatic tissue total RNA (manufactured by Cosmobio Co., Ltd.) using an RT-PCR method.
The PCR product thus obtained was cloned into an entry vector pENTR-D/TOPO (manufactured by Invitrogen, Inc.), and then was sub-cloned into pCDNA3.2-V5/DEST (manufactured by Invitrogen, Inc.), The vector was transduced into HEK293 cells by means of LIPOFECTAMINE 2000 (manufactured by Invitrogen, Inc.). The transduced cells were proliferated in DMEM medium containing 450 μg/mL of G-418 (Promega Corp.) and screened.
Measurement of the activity of TRPM8 transduced into HEK293 cells was carried out by a fluorescent calcium imaging method.
First, the cultured TRPM8 expressing cells were seeded (30,000 cells/well) in a 96-well plate coated with poly-D-lysine (manufactured by BD Biosciences Co.), the cells were incubated overnight at 37° C., and then the culture fluid was removed. Fluo4-AM liquid (manufactured by Dojindo Molecular Technologies, Inc.; CALCIUM KIT II) was added thereto, and the cells were incubated for 30 to 60 minutes at 37° C. Thereafter, the 96-well plate was mounted on a fluorescence plate reader (FDSS3000; manufactured by Hamamatsu Photonics K.K.), and while the temperature inside the apparatus chamber was maintained at 32° C., a fluorescent image made by Fluo4 when excited at an excitation wavelength of 480 nm, was captured at a detection wavelength of 520 nm using a CCD camera.
Measurement was carried out at every one second for 4 minutes in total. 15 seconds after the initiation of measurement, a test sample (prepared by dissolving each of the compounds indicated in the following Table 1 in ethanol) was added through a dispenser equipped in FDSS3000, and the activity of TRPM8 was evaluated based on the change in fluorescence intensity.
(3) Evaluation of TRPM8 Activation
For the TRPM8 activity, the intrinsic fluorescence was excluded using the following formula, so as to eliminate the influence of intrinsic fluorescence caused by the test sample. Fluorescence intensity excluding intrinsic fluorescence(Fsub)=(Fluorescence intensity of TRPM8 expressing cells at each time point)−{(fluorescence intensity of HEK293 cells at each time point)−(fluorescence intensity of HEK293 cells at the time of measurement initiation)}
Furthermore, the TRPM8 activating action induced by each sample was evaluated using the peak of the fluorescence intensity ratio after the addition of the test sample. The fluorescence intensity ratio was calculated using the following formula. Fluorescence intensity ratio=Fsub at each time point/at the time of measurement initiation
The evaluation was carried out using two wells per each treated group, and the average value was used.
The TRPM8 activating action of each test sample was evaluated at a final concentration in the range of 1 nM to 100 μM, and a dose dependent curve approximating Hill's equation by the least square method was determined.

Going from `C=CCc1cc(OC)c(OC(C)C(OC)c2ccc(O)c(OC)c2)c(OC)c1` (mixture of isomers) [Mixture (18), Δ8′-4-hydroxy-3,3′,5′,7-tetramethoxy-8-O-4′-neolignan] to `C=CCc1cc(OC)c(OC(C)C(OCC)c2ccc(O)c(OC)c2)c(OC)c1` (single isomer, unassigned) [Erythro-form (1), erythro-Δ8′-7-ethoxy-4-hydroxy-3,3′,5′-trimethoxy-8-O-4′-neolignan], the EC50 falls from 2410 nM to 1570 nM (1.5-fold). The second is the more potent here.

First: C=CCc1cc(OC)c(O[C@@H](C)[C@H](OCCCC)c2ccc(O)c(OC)c2)c(OC)c1 (relative stereo) [Erythro-form (19), Erythro-Δ8′-7-butoxy-4-hydroxy-3,3′,5′-trimethoxy-8-O-4′-neolignan]
Second: C=CCc1cc(OC)c(O[C@H](C)[C@H](OCCCC)c2ccc(O)c(OC)c2)c(OC)c1 (relative stereo) [Threo-form (20), Threo-Δ8′-7-butoxy-4-hydroxy-3,3′,5′-trimethoxy-8-O-4′-neolignan]
The EC50 of the first is 14-fold higher: 581 nM for the first, 43 nM for the second.

First: C=CCc1cc(OC)c(O[C@@H](C)[C@H](OC(C)=O)c2ccc(O)c(OC)c2)c(OC)c1 (relative stereo) [Erythro-form (23), erythro-Δ8′-7-acetyl-4-hydroxy-3,3′,5′-trimethoxy-8-O-4′-neolignan]
Second: C=CCc1cc(OC)c(OC(C)C(OCC)c2ccc(O)c(OC)c2)c(OC)c1 (single isomer, unassigned) [Threo-form (2), threo-Δ8′-7-ethoxy-4-hydroxy-3,3′,5′-trimethoxy-8-O-4′-neolignan]
The EC50 of the first is 13-fold higher: 2600 nM for the first, 199 nM for the second. The second is the more potent here.

Compared with `C=CCc1cc(OC)c(O[C@H](C)[C@H](OCC)c2ccc(O)c(OC)c2)c(OC)c1` [7R8R-form (2a), (7R,8R)-Δ8′-7-ethoxy-4-hydroxy-3,3′,5′-trimethoxy-8-O-4′-neolignan], `C=CCc1cc(OC)c(O[C@@H](C)[C@H](OCC)c2ccc(O)c(OC)c2)c(OC)c1` [7R8S-form (1a), (7R,8S)-Δ8′-7-ethoxy-4-hydroxy-3,3′,5-trimethoxy-8-O-4′-neolignan] is 2-fold higher in EC50: 610 nM for the first, 1230 nM for the second.

First: C=CCc1cc(OC)c(O[C@H](C)[C@@H](OCC)c2ccc(O)c(OC)c2)c(OC)c1 [7S8R-form (1b), (7S,8R)-Δ8′-7-ethoxy-4-hydroxy-3,3′,5′-trimethoxy-8-O-4′-neolignan]
Second: C=CCc1cc(OC)c(O[C@@H](C)[C@@H](OCC)c2ccc(O)c(OC)c2)c(OC)c1 [7S8S-form (2b), (7S,8S)-Δ8′-7-ethoxy-4-hydroxy-3,3′,5′-trimethoxy-8-O-4′-neolignan]
The EC50 of the first is 11-fold higher: 981 nM for the first, 87 nM for the second.

Compared with `C=CCc1cc(OC)c(OC(C)C(OCC)c2ccc(O)c(OC)c2)c(OC)c1` (centres unmarked) [Mixture (15), Δ8′-7-ethoxy-4-hydroxy-3,3′,5′-trimethoxy-8-O-4′-neolignan], `C=CCc1cc(OC)c(OC(C)C(OCC(C)C)c2ccc(O)c(OC)c2)c(OC)c1` (centres unmarked) [Mixture (25), Δ8′-7-Isobutoxy-4-hydroxy-3,3′,5′-trimethoxy-8-O-4′-neolignan] is 2.7-fold lower in EC50: 309 nM for the first, 113 nM for the second.

Going from `C=CCc1cc(OC)c(OC(C)C(OC(C)C)c2ccc(O)c(OC)c2)c(OC)c1` (centres unmarked) [Mixture (24), Δ8′-7-isopropoxy-4-hydroxy-3,3′,5′-trimethoxy-8-O-4′-neolignan] to `C=CCc1cc(OC)c(OC(C)C(OC(C)(C)C)c2ccc(O)c(OC)c2)c(OC)c1` (centres unmarked) [Mixture (31), Δ8′-7-t-Butoxy-4-hydroxy-3,3′,5′-trimethoxy-8-O-4′-neolignan], the EC50 falls from 75 nM to 40 nM (1.9-fold). The second is the more potent here.

First: C=CCc1cc(OC)c(OC(C)C(OCCCCCC)c2ccc(O)c(OC)c2)c(OC)c1 (centres unmarked) [Mixture (26), Δ8′-7-Hexoxy-4-hydroxy-3,3′,5′-trimethoxy-8-O-4′-neolignan]
Second: C=CCc1cc(OC)c(OC(C)C(OCCCCCCCC)c2ccc(O)c(OC)c2)c(OC)c1 (centres unmarked) [Mixture (27), Δ8′-7-Octoxy-4-hydroxy-3,3′,5′-trimethoxy-8-O-4′-neolignan]
The EC50 of the first is 2.5-fold higher: 218 nM for the first, 88 nM for the second.

Compared with `C=CCc1cc(OC)c(OC(C)C(OCCCCCCCCCC)c2ccc(O)c(OC)c2)c(OC)c1` (centres unmarked) [Mixture (28), Δ8′-7-Decoxy-4-hydroxy-3,3′,5′-trimethoxy-8-O-4′-neolignan], `C=CCc1cc(OC)c(OC(C)C(OCCOCCCC)c2ccc(O)c(OC)c2)c(OC)c1` (centres unmarked) [Mixture (32), Δ8′-7-Oxybutoxyethyl-4-hydroxy-3,3′,5′-trimethoxy-8-O-4′-neolignan] is 2.1-fold higher in EC50: 61 nM for the first, 131 nM for the second. The first is the more potent here.

Going from `C=CCc1cc(OC)c(OC(C)C(OC2CCCCC2)c2ccc(O)c(OC)c2)c(OC)c1` (centres unmarked) [Mixture (29), Δ8′-7-Cyclohexoxy-4-hydroxy-3,3′,5′-trimethoxy-8-O-4′-neolignan] to `C=CCc1cc(OC)c(OC(C)C(OCc2ccccc2)c2ccc(O)c(OC)c2)c(OC)c1` (centres unmarked) [Mixture (30), Δ8′-7-Benzyloxy-4-hydroxy-3,3′,5′-trimethoxy-8-O-4′-neolignan], the EC50 rises from 45 nM to 144 nM (3.2-fold). The first is the more potent here.

First: C=CCc1ccc(OC(C)Cc2ccc(O)c(OC)c2)c(OC)c1 (centres unmarked) [Mixture (34), Δ8′-4-Hydroxy-3,3′-dimethoxy-8-O-4′-neolignan]
Second: C/C=C/c1ccc(OC(C)C(OCC)c2ccc(O)c(OC)c2)c(OC)c1 (centres unmarked) [Mixture (36), Δ8′-7-ethoxy-4-hydroxy-3,3′-dimethoxy-1′-propenyl-8-O-4′-neolignan]
The EC50 of the first is 2.1-fold lower: 5850 nM for the first, 12200 nM for the second. The first is the more potent here.

With `CCOC(c1ccc(O)c(OC)c1)C(C)Oc1ccccc1OC` (centres unmarked) [Mixture (38), 4-[1-ethoxy-2-(2-methoxyphenoxy)propyl]-2-methoxyphenol] the EC50 was 56200 nM.
